Earlier results on one compound are cited in patent publication US9089619B2, “Hybrid nanocrystals for treatment and bioimaging of disease” (University of Kentucky, priority 2005, dated 2015).

The conditions of the series: water at 25° C.

In the case of `Nc1nc2ncc(CNc3ccc(C(=O)N[C@@H](CCC(=O)O)C(=O)O)cc3)nc2c(=O)[nH]1` [Folic acid], the solubility in water entry is “about 1.6 μg/ml”.
